Values quoted from earlier work in US7968511B2, “Combination therapy with glatiramer acetate and mitoxantrone for the treatment of multiple sclerosis” (Teva Pharmaceutical Industries, Ltd., priority 2003, dated 2011).

System: multiple sclerosis (MS)
Details: daily subcutaneous injections, 20 mg/injection

L-glutamic acid polymer with L-alanine, L-lysine and L-tyrosine, acetate (salt) [glatiramer acetate]
reduce: appearance of "black holes" | appearance of new lesions by magnetic resonance imaging (MRI) | progression of disability | relapse rates
